Assay results taken from patent US5084479A, “Novel methods for treating neurodegenerative diseases” (priority 1990, dated 1992).
Values joined by “and” are separate entries in the source; they are usually repeats but may differ in a detail not shown here. Identical values can stand only once. Like-named read-outs stand apart in the source and are kept apart here.

Columns and labels:
[1] = tested on: glycine modulatory site of the NMDA receptor-channel complex; format: cell-based, rat; details: for Effect on glycine-potentiated NMDA-induced current: gabapentin 10 μM with glycine 1 μM and strychnine 10 μM, reversed on washing; for Effect on glycine-potentiated NMDA-induced current / Effect on NMDA-induced current in the absence of glycine: acetic acid; for Effect on NMDA-induced current in the absence of glycine: gabapentin 10 μM, bath application, reversed on washing for four minutes
Procedure: Whole-cell patch clamp techniques were employed to investigate the effects of the antiepileptic drug, gabapentin, upon the responses of striatal neurons in dissociated culture to NMDA.
Striata were aseptically dissected from 16-day-old rat fetuses and mechanically triturated in enzyme-free Puck's saline (Gibco, UK). The resulting suspension was diluted to 1×10^6 cells/mL using freshly prepared medium. The medium was composed of Minimal essential medium with Earle's salts and included Fetal calf serum (5% v/v), Horse serum (5% v/v), L-Glutamine (2 mM), Insulin ([…]), and HEPES (5 mM) buffer (all Gibco, UK).
The cells were plated onto Poly-L-ornithine ([…]; Sigma) coated glass coverslips (diameter 13 mm) and incubated at 37° C. in a humidified atmosphere of 95% Air/5% CO2.
After seven days, the media was replaced with freshly prepared media containing (+)-5-fluoro-deoxyuridine (10 μM; Sigma) to inhibit the proliferation of nonneuronal elements. Cultures were subsequently fed twice weekly.
Patch electrodes with ohmic resistances of 6-10 M .OMEGA. were filled with an intracellular solution of the following composition (all mM); CsF 140.0, CaCl2 0.5, NaCl 1.0, K-EGTA 5.0 and HEPES 10.0. All recordings were made at 20°-22° C. using a List EPC7 amplifier and the resulting signal was filtered at 10 KHz. Fast and slow transient capacity compensation was employed, and cells were voltage clamped at a holding potential of -70 mV, unless otherwise stated.
Drugs were dissolved to a known concentration in the extracellular solution and were applied via the perfusion system. NMDA was applied via the perfusion system, or by rapid pressure ejection. All drugs were obtained from Sigma, except gabapentin which was synthesized at Goedecke (Warner-Lambert) Germany.

GABAB = details: cited from earlier work
[2] = in vivo; cited from earlier work
neuronal GABA uptake = details: cited from earlier work
GABA = details: cited from earlier work
[3] = tested on: seizures elicited by NMDA; details: in vivo; cited from earlier work
[4] = tested on: NMDA receptor-channel complex; experiment: Intracellular recording of NMDA-induced depolarization, paraventricular thalamus (PVT) neurones in brain slices; format: cell-based, rat; details: gabapentin 300 μM
Procedure: (§1) Intracellular recordings were made from neurones of either paraventricular thalamus (n =8, 7 slices) or CA1 region of the hippocampus (n =5, 5 slices) contained in […] rat brain slices. NMDA applied via the perfusion system, produced a concentration-dependent depolarization of all neurones tested. In every case but one, control response to NMDA was reduced by a concomitant application of gabapentin (300 μM). The concentration-response curves for NMDA in the presence and absence of gabapentin show a noncompetitive interaction of gabapentin with NMDA receptor-channel complex.
(§2) Coronal slices of rat brain at the level of the ventromedial hypothalamus were chosen since these contain both hippocampus and paraventricular thalamus (PVT). Slices were perfused in normal (1.3 mM magnesium) artificial cerebrospinal fluid (ACSF) at 3 mL/min. Conventional intracellular recording techniques were employed, using 1M potassium acetate-filled electrodes pulled on a Brown-Flaming microelectrode puller type P-87.
Drugs were made up as stock solutions in distilled water (NMDA 50 mM; gabapentin 100 mM) and stored frozen prior to use. The required concentrations of each drug were obtained by direct dilution with ACSF at the time of the experiment. Control dose-response curves for NMDA were obtained either in the presence or absence of tetrodotoxin (TTX). NMDA was applied to a 30-second period, with at least five minutes between successive doses. Gabapentin was added to the same NMDA-containing solutions and the dose-response curves repeated. Experiments were also performed using repeated single doses of NMDA to ensure that the effects of gabapentin were not due to rundown of the NMDA response.

[5] = in vivo; cited from earlier work; remark: listed apart in the source
[6] = tested on: seizures elicited by 4-aminobutanoic acid (GABA) synthesis or GABA receptor antagonists; details: mice; cited from earlier work
[7] = tested on: NMDA receptor-channel complex; experiment: Intracellular recording of NMDA-induced depolarization, CA1 hippocampal neurones in brain slices; format: cell-based, rat; details: gabapentin 300 μM
Procedure: as §1, §2
Drugs were made up as stock solutions in distilled water (NMDA 50 mM; gabapentin 100 mM) and stored frozen prior to use. The required concentrations of each drug were obtained by direct dilution with ACSF at the time of the experiment. Control dose-response curves for NMDA were obtained either in the presence or absence of tetrodotoxin (TTX). […]

NCC(=O)O [Glycine, reference compound]
Effect of glycine on NMDA-induced peak current [1]: potentiation of the NMDA induced peak current
Effect of glycine on sustained inward current produced by bath application of NMDA ([1]; NMDA 100 μM bath application, glycine 1 μM): markedly potentiated
Peak Inward Current (pA), relative to NMDA = 100% ([1]; striatal neurons): 589 ± 156% and 713 ± 260%

NCC1(CC(=O)O)CCCCC1 [gabapentin, 1-aminomethyl-cyclohexane acetic acid]
Displacement of GABAB binding (GABAB): does not displace
Metabolism in the body [2]: not metabolized in the body
Interference with neuronal GABA uptake (neuronal GABA uptake): does not interfere with neuronal GABA uptake
Displacement of GABA binding (GABA): does not displace
Latency of onset of seizures elicited by NMDA [3]: prolong the latency of onset of seizures
Peak Inward Current (pA), relative to NMDA = 100% ([1]; Table 2, NMDA + 10 μM GABA-P, no exogenous glycine, n = 4): 305 ± 88%
Peak Inward Current (pA), relative to NMDA = 100% ([1]; Table 2, NMDA after 'wash' of 10 μM GABA-P, n = 4): 106 ± 9%
Peak Inward Current (pA), relative to NMDA = 100% ([1]; Table 3, 'wash' of GABA-P, NMDA + 1 μM Glycine + 10 μM Strychnine, n = 3): 257 ± 418%
Peak Inward Current (pA), relative to NMDA = 100% ([1]; Table 3, NMDA + 1 μM Glycine + 10 μM Strychnine + 10 μM GABA-P, n = 3): 201 ± 24%
Effect on glycine-potentiated NMDA-induced current [1]: antagonism of the glycine-induced potentiation of the NMDA-induced current
Effect on glycine-potentiated NMDA-induced current ([1]; listed as Gabapentin): antagonism of the glycine-potentiated NMDA current
Effect on NMDA-induced current in the absence of glycine [1]: potentiation of the NMDA-induced current
Effect on NMDA-induced current in the absence of glycine ([1]; listed as Gabapentin): reversible potentiation of the NMDA-induced current
Reduction of NMDA depolarization ([4]; 100 μM NMDA for 30 s, TTX present, thalamic neurones (FIG. 5)): ~60%
Nature of the block of the NMDA response ([4]; NMDA dose-response curves, PVT neurones (FIG. 6B)): noncompetitive
Effect on response (depolarization) to NMDA ([4]; high (30 to 50 μM) concentrations of NMDA, PVT neurones): reduced
Tolerability [5]: well tolerated
Toxicity [5]: relatively nontoxic
Protection from seizures [6]: protect mice from seizures
Effect on NMDA-induced depolarization ([7]; CA1 hippocampal neurones, more evident as NMDA concentration increased): reduction in the NMDA-induced depolarization
Nature of the block of the NMDA response ([7]; NMDA dose-response curves, hippocampus (FIG. 8B)): noncompetitive
